Like-named read-outs stand apart in the source and are kept apart here.
Columns and labels:
[1] = biological target: AeNobo-WT (Aedes aegypti, UniProt A0A1S4FIB3); experiment: GST activity inhibition assay with 3,4-DNADCF, wild-type AeNobo; format: biochemical
Method: We prepared a purified AeNobo recombinant protein (220-aa length) using an Escherichia coli protein expression system. The GST enzymatic activity was examined using the fluorogenic artificial substrate 3,4-dinitrobenzamidedichlorofluorescein (3,4-DNADCF).
The IC50 value was measured using an in vitro assay system as described previously. […] Five microliters of each diluted compound solution was mixed with 245 μL of solution A (100 mM sodium phosphate buffer at pH 6.5, 0.01% Tween 20, 2 mM GSH, and 50 ng/mL AeNobo-WT, 100 ng/mL AeNobo-E113A, and 200 ng/mL F39L). One hundred microliters of the mixture was dispensed into wells of a 96-well plate. One hundred microliters of solution B (0.2 μM 3,4-DNADCF and 100 mM sodium phosphate buffer at pH 6.5) was added to each well. In summary, the final reaction system comprised 100 mM sodium phosphate buffer (pH 6.5), 1 mM GSH, 0.005% Tween 20, 0.1 μM 3,4-DNACDF, and 25 ng/mL AeNobo, 50 ng/mL AeNobo-E113A, or 100 ng/mL AeNobo-F39L protein. The fluorescence intensity derived from 4-GS-3-NADCF, a product of this reaction, was measured for 3 min. IC50 values were estimated as described previously. The enzymatic assays under each condition were performed at least twice independently.
To identify inhibitors of AeNobo enzymatic activity, a high-throughput screening was performed as described in a previous study. Briefly, a core library of 9600 compounds obtained from the Drug Discovery Initiative, The University of Tokyo, was utilized for screening. In this screen, the enzymatic activity of AeNobo was detected using 3,4-DNADCF [29]. […] Then, 1 μL of solution B (4 μM 3,4-DNADCF, 100 mM sodium phosphate at pH 6.5, and 0.005% Tween 20) was added into each well. In summary, the reaction system comprised 5.6 ng/mL AeNobo protein, 2 μM 3,4-DNADCF, 1 mM GSH, 0.005% Tween 20, and 100 mM sodium phosphate at pH 6.5, together with each compound at 10 μM. The plate was incubated for 30 min at 25–27 °C and 2 μL of 10 mM N-ethylmaleimide was added into each well to stop the reaction. […] For the second screen, we assayed the IC50 values of the compounds against the enzymatic activity of AeNobo.

[2] = biological target: AeNobo-E113A (Aedes aegypti, UniProt A0A1S4FIB3, E164K); experiment: GST activity inhibition assay with 3,4-DNADCF, AeNobo-E113A; format: biochemical
Text: The importance of the Glu-113–flavonoid hydrogen bond for flavonoid binding was biochemically examined with a recombinant mutated AeNobo protein carrying an E113A aa substitution (AeNobo-E113A).
(§1) pCold III plasmids expressing the AeNobo-E113A and AeNobo-F39L were constructed using KOD-Plus-Mutagenesis Kit (Toyobo). The following primers were used: E113A-F (5′-[…]-3′) and E113A-R (5′-[…]-3′) for AeNobo-E113A and F39L-F (5′-[…]-3′) and F39L-R (5′-[…]-3′) for AeNobo-F39L. We conducted inverse PCR using KOD-plus polymerase, pColdIII/AeNobo-WT plasmid, and the primer pair described above under the following conditions: pre-denaturation at 94 °C for 2 min, denaturation at 98 °C for 10 s, and extension at 68 °C for 6 min for 6 cycles. The PCR products were treated with DpnI at 37 °C for 1 h, followed by self-ligation using T4 polynucleotide kinase and Ligation High. After the transformation of DH5α bacteria using the ligation products, we extracted plasmid DNA from the colonies and verified their sequences to confirm whether the appropriate point mutations were introduced.
The IC50 value was measured using an in vitro assay system as described previously. A dilution series of compounds, ranging from 2.5 mM to 0.127 μM for DMG and from 2.5 mM to 4.9 μM for other compounds, was prepared by 2-fold serial dilution in DMSO. Five microliters of each diluted compound solution was mixed with 245 μL of solution A (100 mM sodium phosphate buffer at pH 6.5, 0.01% Tween 20, 2 mM GSH, and 50 ng/mL AeNobo-WT, 100 ng/mL AeNobo-E113A, and 200 ng/mL F39L). One hundred microliters of the mixture was dispensed into wells of a 96-well plate. One hundred microliters of solution B (0.2 μM 3,4-DNADCF and 100 mM sodium phosphate buffer at pH 6.5) was added to each well. In summary, the final reaction system comprised 100 mM sodium phosphate buffer (pH 6.5), 1 mM GSH, 0.005% Tween 20, 0.1 μM 3,4-DNACDF, and 25 ng/mL AeNobo, 50 ng/mL AeNobo-E113A, or 100 ng/mL AeNobo-F39L protein. The fluorescence intensity derived from 4-GS-3-NADCF, a product of this reaction, was measured for 3 min. IC50 values were estimated as described previously. The enzymatic assays under each condition were performed at least twice independently.

[3] = system: Ae. aegypti 1st instar larvae; details: cited from earlier work
[4] = biological target: AeNobo-F39L (Aedes aegypti, UniProt A0A1S4FIB3, F90L); experiment: GST activity inhibition assay with 3,4-DNADCF, AeNobo-F39L; format: biochemical
Method: as §1
The IC50 value was measured using an in vitro assay system as described previously. A dilution series of compounds, ranging from 2.5 mM to 0.127 μM for DMG and from 2.5 mM to 4.9 μM for other compounds, was prepared by 2-fold serial dilution in DMSO. […] The fluorescence intensity derived from 4-GS-3-NADCF, a product of this reaction, was measured for 3 min. […]

[5] = biological target: Aedes aegypti Noppera-bo (AeNobo), wild type, 220-aa protein (Aedes aegypti); experiment: SEC; gel filtration of purified AeNobo on HiLoad Superdex200 26/60; 150 mM NaCl, 25 mM Tris-HCl pH 8.0, 5 mM DTT; 1 mL/min; compared with marker proteins
[6] = Table 1, GSH conjugation of 3,4-DNADCF, read-out: IC50 to AeNobo-WT (μM) (mean ± s.d.)
[7] = Table S2, estrogenic compounds against AeNobo, read-out: IC50 (μM) (mean ± s.d.)
[8] = read-out: IC50 (μM) (mean ± s.d.)
[9] = Table S5, luteolin derivatives against AeNobo, read-out: IC50 (μM) (mean ± s.d.)

Sequence of AeNobo-E113A (A0A1S4FIB3 entry or part of it E164K): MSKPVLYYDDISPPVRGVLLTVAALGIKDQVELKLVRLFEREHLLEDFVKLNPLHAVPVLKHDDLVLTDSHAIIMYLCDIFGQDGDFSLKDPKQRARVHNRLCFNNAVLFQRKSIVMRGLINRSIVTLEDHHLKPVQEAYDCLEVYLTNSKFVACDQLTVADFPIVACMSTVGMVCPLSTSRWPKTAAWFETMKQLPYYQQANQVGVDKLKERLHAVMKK
Sequence of AeNobo-WT (A0A1S4FIB3 entry or part of it): as the sequence (A0A1S4FIB3 entry or part of it E164K) above, with K113E counted along it
Sequence of AeNobo-F39L (A0A1S4FIB3 entry or part of it F90L): as the sequence (A0A1S4FIB3 entry or part of it E164K) above, with F39L, K113E counted along it

In the case of `O=C1CC(c2ccccc2O)Oc2ccccc21` (stereo not shown) [2′-Hydroxyflavanone], the IC50 [1, 6] is reported as 4.76 ± 0.37 µM and the IC50 [2] is reported as over 25 µM.
`C[C@]12CC[C@@H]3c4ccc(O)cc4CC[C@H]3[C@@H]1C/C(=C\c1ccccc1)C2=O` [16-benzylidene estrone] showed an IC50 [1, 7] of over 25 µM.
`Cc1cc(-c2ccc3c(c2)CC[C@]3(C)O)cc(C)c1O` [(S)-5-(4-hydroxy-3,5-dimethylphenyl)-1-methyl-2,3-dihydro-1H-inden-1-ol] showed an IC50 [1, 7] of over 25 µM.
Work on `ClC(Cl)=C(c1ccc(Cl)cc1)c1ccc(Cl)cc1` [1,1-Dichloro-2,2-bis(4-chlorophenyl)ethene] yielded an IC50 [1] of over 25 µM.
For `O=c1c(O)c(-c2cc(O)c(O)c(O)c2)oc2cc(O)cc(O)c12` [Myricetin], the IC50 [1] was 2.91 ± 0.27 µM and the IC50 [2] was over 25 µM.
For `O=c1c(-c2ccc(O)cc2)coc2cc(O)cc(O)c12` [Genistein], the IC50 [1, 8] is listed as 1.86 ± 0.41 µM and the “Larvicidal activity against Ae. aegypti” value [3] is listed as “exhibit larvicidal activity”.
In the case of `CCCCOC(=O)c1ccccc1C(=O)OCc1ccccc1` [1-benzyl 2-butyl benzene-1,2-dicarboxylate], the IC50 [1, 7] is reported as over 25 µM.
`O=c1c(O)c(-c2ccc(O)c(O)c2)oc2cc(O)ccc12` [Fisetin] showed an IC50 [1, 6] of 1.69 ± 0.04 µM and an IC50 [2] of over 25 µM.
For `Cn1c(N)nc2ncc(-c3ccccc3)cc21` [2-Amino-1-methyl-6-phenylimidazo[4,5-b]pyridine], the IC50 [1] was over 25 µM.
In the case of `O=c1c(-c2ccc(O)cc2)coc2ccccc12` [3-(4-Hydroxyphenyl)-4H-chromen-4-one], the “Inhibition of enzymatic activity of AeNobo (in words)” value (shortened to “Inhibition”) ([1]; 3,4-DNADCF) is reported as “did not inhibit” and the IC50 [1, 8] is reported as over 25 µM.
Work on `CCCOC(=O)c1ccc(O)cc1` [propyl 4-hydroxybenzoate] yielded an IC50 [1, 7] of over 25 µM.
For `O=c1cc(-c2ccc(O)c(O)c2)oc2cc(O)cc(O)c12` [Luteolin], the IC50 [2] is given as 35.8 ± 5.73 µM, the IC50 [4] is given as 1.58 µM and the “Larvicidal activity toward Ae. aegypti” value [3] is given as “known to exhibit larvicidal activity”.
For `Oc1cc(O)c2cc(O)c(-c3ccc(O)c(O)c3)[o+]c2c1` [Cyanidin chloride], the IC50 [1, 6] was 2.15 ± 0.24 µM and the IC50 [2] was over 25 µM.
`COc1ccc(-c2oc3cc(O)cc(O)c3c(=O)c2O)cc1O` [Tamarixetin] gave an IC50 [1, 6] of over 25 µM.
In the case of `O=c1c(-c2ccc(O)cc2)coc2cc(O)ccc12` [Daidzein], the IC50 [1] is given as 3.87 ± 0.52 µM, the IC50 [2] is given as over 25 µM and the “Larvicidal activity against Ae. aegypti” value [3] is given as “exhibit larvicidal activity”. For the same compound, the “Larvicidal activity toward Ae. aegypti” value [3] was “known to exhibit larvicidal activity”.
In the case of `O=c1c(-c2ccccc2)coc2cc(O)ccc12` [7-Hydroxyisoflavone], the IC50 [1] is reported as 5.61 ± 0.3 µM and the “Inhibition” value ([1]; 3,4-DNADCF) is reported as “retained inhibitory activity”.
In the case of `Oc1ccc(/C=C/c2cc(O)cc(O)c2)cc1` [Resveratrol], the IC50 [1, 7] is reported as over 25 µM.
`CC(C)(c1ccc(O)cc1)c1ccc(O)cc1` [Biosphenol A, 4,4'-propane-2,2-diyldiphenol] gave an IC50 [1] of over 25 µM.
For `O=c1cc(-c2ccc(O)c(O)c2)oc2cc(O)ccc12` [7,3’,4’-Trihydroxyflavone, 7,3′,4′-trihydroxyflavone], the “Inhibition” value ([1]; 3,4-DNADCF) was “retained inhibitory activity” and the IC50 [1, 8] was 10.3 ± 0.47 µM.
`O=C(c1ccc(O)cc1O)c1ccc(O)cc1O` [bis(2,4-dihydroxyphenyl)methanone] showed an IC50 [1, 7] of over 25 µM.
For `O=c1cc(-c2ccccc2)oc2cc(O)cc(O)c12` [Chrysin], the “Inhibition” value ([1]; 3,4-DNADCF) was “did not exhibit any inhibitory activity” and the IC50 [1, 9] was over 25 µM.
With `C[C@H]1CCCC(=O)CCC/C=C/c2cc(O)cc(O)c2C(=O)O1` [Zearalenone] the IC50 [1] was over 25 µM.
Compound `O=C1C[C@@H](c2ccc(O)cc2)Oc2cc(O)cc(O)c21` [Naringenin] has an IC50 [1, 6] of over 25 µM.
Work on `COc1cc(-c2[o+]c3cc(O)cc(O)c3cc2O)cc(O)c1O` [Petunidin] yielded an IC50 [1, 6] of 14.9 ± 2.01 µM and an IC50 [2] of over 25 µM.
`COc1ccc(-c2coc3cc(O)cc(O)c3c2=O)cc1` [Biochanin A] gave an IC50 [1, 6] of 1.84 ± 0.06 µM and an IC50 ([2]; Table 1, GSH conjugation of 3,4-DNADCF, read-out: IC50 to AeNobo-E113A (μM) (mean ± s.d.)) of over 25 µM.
Work on `CCCCOC(=O)c1ccc(O)cc1` [butyl 4-hydroxybenzoate] yielded an IC50 [1, 7] of over 25 µM.
`O=c1cc(-c2ccc(O)cc2)oc2cc(O)cc(O)c12` [Apigenin] gave an IC50 [1, 9] of over 25 µM and an IC50 ([1]; text and figures, 3,4-DNADCF, read-out: IC50 against AeNobo (WT)) of over 25 µM.
For `O=c1c(O)c(-c2ccc(O)cc2)oc2cc(O)cc(O)c12` [Kaempferol], the IC50 [1, 6] was 4.91 ± 1.69 µM and the IC50 [2] was over 25 µM.
Work on `Oc1ccc(C(c2ccc(O)cc2)C(Cl)(Cl)Cl)cc1` [4-[2,2,2-trichloro-1-(4-hydroxyphenyl)ethyl]phenol] yielded an IC50 [1] of over 25 µM.
For `CC1=CC[C@@H]2C[C@H]1C(c1ccc(O)cc1)OC2(C)C` (stereo partly drawn) [4-[(1R,5R)-4,4,8-trimethyl-3-oxabicyclo[3.3.1]non-7-en-2-yl]phenol], the IC50 [1, 7] was over 25 µM.
With `O=c1cc(-c2ccc(O)c(O)c2)oc2cccc(O)c12` [5,3’,4’-Trihydroxyflavone, 5,3′,4′-trihydroxyflavone] the IC50 [1] was 1.64 ± 0.1 µM and the “Inhibition” value ([1]; 3,4-DNADCF) was “retained inhibitory activity”.
For “Aedes aegypti Noppera-bo (AeNobo), wild type, 220-aa protein (enzyme)”, the stoichiometry N [5] was 2.
For `Oc1ccc([C@H]2COc3cc(O)ccc3C2)cc1` [S-equol], the IC50 [1, 6] was over 25 µM.
Work on `O=c1c(O)c(-c2ccc(O)c(O)c2)oc2cc(O)cc(O)c12` [Quercetin] yielded an IC50 [1] of 0.963 ± 0.094 µM and an IC50 [2] of over 25 µM.
Work on `CC1=CC(C)[C@@]2(CO)COC(c3ccc(O)cc3)[C@@H]1C2C` (stereo partly drawn) [4-[(1R,5R)-5-(hydroxymethyl)-6,8,9-trimethyl-3-oxabicyclo[3.3.1]non-7-en-2-yl]phenol] yielded an IC50 [1, 7] of over 25 µM.
`CC(C)(C)CC(C)(C)c1ccc(O)cc1` [4-(2,4,4-trimethylpentan-2-yl)phenol] showed an IC50 [1, 7] of over 25 µM.
`C[C@H]1CCC[C@H](O)CCCCCc2cc(O)cc(O)c2C(=O)O1` [α-zearalanol] gave an IC50 [1, 7] of over 25 µM.
“(+)-catechin hydrate [(+) Catechin hydrate]” showed an IC50 [1, 6] of over 25 µM.

Reference: publication PMC8851771, “Molecular action of larvicidal flavonoids on ecdysteroidogenic glutathione S-transferase Noppera-bo in Aedes aegypti” (BMC Biology, 2022)
